Experimental data published in patent US20230416168A1 (EUROCHEM ANTWERPEN, priority 2020, published 2023).
“Also recorded” adds a separate entry of the source.

Legend:
[1] = test system: NH3 or NH2OH oxidation in N. europaea cells; assay: Nitrosomonas europaea ammonia vs. hydroxylamine oxidation assay; assay type: cell-based; conditions: for Nitrification from NH2OH (% compared to DMSO): 1 mM NH2OH as N-source; for Nitrification from NH2OH (% compared to DMSO) / Nitrification from NH3 (% compared to DMSO): compounds 50 μM, NO2- after 30 min; for Nitrification from NH3 (% compared to DMSO): NH4+ 1 mM as N-source
Procedure: Two days old, late-log phase cultures with a NO2− concentration between 10 and 20 mM were washed 3 times in fresh growth medium (without N) and finally 4 times overconcentrated via centrifugation (4000 rpm, 15 min, 4° C.). Transparent, flat bottom 96-well plate (Cat. No. 353072, Falcon® 96 Well Clear Flat Bottom Microplate, Corning®) were filled with 150 μl culture per well using a dispenser (Multidrop™ Combi Reagent Dispenser, Thermo Scientific™). Compounds (final concentration 50 μM) were added in triplicate to the multi-well plate by use of a Tecan robot (Freedom EVO®, Tecan). Thiourea (positive control for inhibition of NH3 oxidation—final concentration 100 μM) and phenylhydrazine hydrochloride (positive control for inhibition of NH2OH oxidation—final concentration 1 mM) were added to the outer two columns. Each plate was made in duplicate to add either 500 μM (NH4)2SO4 (final [NH4+]=1 mM) or 1 mM NH2OH. All plates were separately wrapped in Parafilm. Stacks of 4 plates were put on top of a 96-well plate filled with 100 μl MilliQ per well, covered with aluminum foil and shaken (±150 rpm) at 28° C. To prevent read-out of secondary effects on NO2− production, NO2− was measured only 30 min later. For this, the samples were first 2 times diluted by pipetting 15 μl in 15 μl fresh growth medium in 96-well intermediate plates (Cat. Ref. PCR-96-FS-C, 96-well PCR Microplate, Axygen®) to then mix 15 μl of the diluted samples with 15 μl Griess reagent in the wells of a transparent, flat bottom 384-well plate (Cat. No. X^7001, Low Profile Microplate, Molecular Devices) that was measured spectrophotometrically at 540 nm (EnVision, Perkin Elmer®).
To get insights on the targeted metabolic pathway and to discriminate between compounds that specifically affect NH3 oxidation or that affect another pathway, three representative novel nitrification inhibitors (Examples 1, 5 and 6) were tested in the “ammonia vs hydroxylamine oxidation assay” in which NO2− production from NH3 was compared with NO2− production from NH2OH.

Nitrosospira multiformis = assay: Nitrification inhibition assay with Nitrosospira multiformis (nitrite level after 24 h); assay type: cell-based; conditions: for IC50 / activity at 100 µM: Nitrosospira multiformis; for IC50: 8-point dose response, 2 to 100 μM, read-out: IC50; for activity at 100 µM: tested concentration 100 μM, 24 h, normalized to DMSO (100%) and 100 μM DMP (0%), read-out: Nitrification at tested concentration (0 = maximum activity)
Procedure: (§1) The compounds of formula (I) and (II) and (III)/(IV) were tested for their nitrification inhibition effect in two screens, using assays with the nitrifying bacteria N. europaea and N. multiformis. In practice, ammonium and candidate nitrification inhibitors (at 100 μM) were added to a dense bacterial culture in multiwell culture plates and after 24 h of incubation, the nitrite level was measured. To normalize for differences between batches of cultures and multiwell culture plates, for each well a relative nitrification was calculated that was normalized towards both the negative and positive controls (see “Material and Methods” below for full details).
(§2) Nitrite (NO2−) was measured using the Griess reagent (Product number: G4410, Griess reagent (modified), Sigma-Aldrich). Equal volumes of the sample or a diluted sample and the Griess reagent were mixed a transparent flat bottom multi-well plate and incubated in the dark at room temperature for 10 minutes. Absorbance values at 540 nm were measured spectrophotometrically (EnVision, Perkin Elmer®) and used to calculate the [NO2−] by use of a standard curve.
Cultures were first 5 times overconcentrated in fresh 181-medium by centrifugation (4000 rpm, 15 min, 5° C.) in 50 mL centrifuge tubes (Cat. No. 430829, CentriStar™ Conical Centrifuge Tubes, Corning®). Per batch, all the cultures were pooled in one sterile Schott bottle and subsequently dispensed in 384-well plates (Cat. No. 781086, CELLSTAR® plate, Greiner BioOne; 50 μl/well) by use of a dispenser (Multidrop™ Combi Reagent Dispenser, Thermo Scientific™) that was first flushed with 181-medium. 0.5 μl of 99.99% DMSO (negative control—final concentration […] was added to the outer two columns on the left side of the plate and 0.5 μl of 10 mM DMP (3,4-dimethylpyrazole, positive control—final concentration 100 μM) was added to the outer two columns on the right side manually. Finally, 0.5 μl of candidate nitrification inhibitors (5 mM stock solutions in 99.99% DMSO—final concentration 50 μM) were added to the central wells using a pin tool on a Tecan robot (Freedom EVO®, Tecan). In between additions, the pins were washed in sequence with 99.5% DMSO, MilliQ water and 100% ethanol and air-dried. All plates were separately wrapped in Parafilm. Stacks of 4 plates were put on top of a 96-well plate filled with 100 μl MilliQ per well, covered with aluminum foil and shaken (±150 rpm) at 30° C. 24 h later, NO2− production was assessed. For this, the samples were first 100 times diluted by pipetting 3 μl of samples into 300 μl fresh growth medium in intermediate plates (Cat. No. 353077, Falcon® 96-well Clear Round Bottom Microplate, Corning®) to then mix 15 μl of the diluted samples with 15 μl Griess reagent in the wells of a transparent, flat bottom 384-well plate (Cat. No. X^7001, Low Profile Microplate, Molecular Devices) that was measured spectrophotometrically at 540 nm (EnVision, Perkin Elmer®).
(§3) To assess the efficacy of the compounds (in terms of nitrification inhibition) and to enable comparison between plates and batches of cultures, we calculated the relative nitrification. More in detail, all nitrite results were normalized towards both a negative control, containing no compound, and a positive control, containing the benchmark (100 μM DMP), using Equation 1. This normalization was done per multi-well plate and each plate contained 32 positive and 32 negative controls.
IC50 values, that is the concentration that inhibits 50% of the nitrification, were calculated after fitting a logistic curve to 8-point dose response data, using doses between 2 and 100 μM with 1.75 fold steps. If a concentration of 2 μM already inhibited nitrification, the IC50 value could not be calculated. In that case, IC50 values represent the dose that gives inhibition closest to 50%.
The compounds of formula (I) and (II) were tested for their nitrification inhibition effect in two screens, using assays with the nitrifying bacteria N. europaea and N. multiformis. […]

Nitrosomonas europaea = assay: Nitrification inhibition assay with Nitrosomonas europaea (nitrite level after 24 h); assay type: cell-based; conditions: for IC50 / activity at 100 µM: Nitrosomonas europaea; for IC50: 8-point dose response, 2 to 100 μM, read-out: IC50; for activity at 100 µM: tested concentration 100 μM, 24 h, normalized to DMSO (100%) and 100 μM DMP (0%), read-out: Nitrification (%) at tested concentration (0 = maximum activity)
Procedure: as §1, §2
To prepare a high-throughput nitrification inhibition assay using N. europaea, late-log phase cultures were subcultivated two days before the assay. Just before the assay, the cultures were 5 times overconcentrated with fresh growth medium after centrifugation (4000 rpm, 15 min, 5° C.) in 50 mL centrifuge tubes (Cat. No. 430829, CentriStar™ Conical Centrifuge Tubes, Corning®). Per batch, all the cultures were pooled in one sterile Schott bottle and subsequently dispensed into 384-well plates (Cat. No. 781086, CELL-STAR® plate, Greiner Bio-One; 50 μl/well) by use of a dispenser (Multidrop™ Combi Reagent Dispenser, Thermo Scientific™) that was first flushed with growth medium. Specifically for the high-throughput screen for new nitrification inhibitors, 0.5 μl of 99.99% DMSO (negative control—final concentration 1%) was added to the outer two columns on the left side of the plate and 0.5 μl of 10 mM DMP (3,4-dimethylpyrazole, positive control—final concentration 100 μM) was added to the outer two columns on the right side manually. Finally, 0.5 μl of candidate nitrification inhibitors (5 mM stock solutions in 99.99% DMSO—final concentration 50 μM) were added to the central wells using a pin tool on a Tecan robot (Freedom EVO®, Tecan). In between additions, the pins were washed in sequence with 99.5% DMSO, MilliQ water and 100% ethanol and air-dried. All plates were separately wrapped in Parafilm. Stacks of 4 plates were put on top of a 96-well plate filled with 100 μl MilliQ per well, covered with aluminum foil and shaken at 150 rpm at 28° C. 24 h later, NO2− production was assessed. For this, the samples were first 200 times diluted by pipetting 1.5 μl of samples into 300 μl of fresh growth medium in intermediate plates (Cat. No. 353077, Falcon® 96-well Clear Round Bottom Microplate, Corning®), to then mix 15 μl of the diluted samples with 15 μl Griess reagent in the wells of a transparent, flat bottom 384-well plate (Cat. No. X^7001, Low Profile Microplate, Molecular Devices) that was measured spectrophotometrically at 540 nm (EnVision, Perkin Elmer®).
as §3
IC50 values, that is the concentration that inhibits 50% of the nitrification, were calculated after fitting a logistic curve to 8-point dose response data, using doses between 2 and 100 μM with 1.75 fold steps. […]

Merelbeke soil = assay: In soil nitrification inhibition assay, Merelbeke soil; conditions: for inhibition of ammonium consumption in soil, in words: 50 μM, one week of treatment; for inhibition at 50 µM: soil, 168 h, 7 days, read-out: % Nitrification inhibition in soil (7 days of incubation, Merelbeke soil)
Procedure: Top layer (0 to 10 cm) soil samples were collected from different fields in Belgium (Merelbeke and Moorslede). Vegetation on the field trial was removed and samples were taken from different plots. All soil samples were mixed and sieved (mesh size 2.8 mm) to filter large debris and homogenize soil. The soil was stored at 5° C. in plastic containers covered with Saran foil to prevent changes in microbial community composition and to maintain the original soil water content. Soil water content was determined by drying 20 g soil for 48 h in a 60° C. oven and measuring weight before and after drying. Based on the soil water content (±20%), compound solutions were prepared so that addition of 200 μl compound and 200 μl NH4Cl solution would result in a final compound concentration of 50 μM and a final NH4^+ concentration of 10 mM. Per treatment, 5 small pots were filled with 20 g soil. Next, the soil was treated first with the respective compound solution and then with the NH4Cl solution. Per tray, positive (50 μM DMP) and negative controls (DMSO) were included. Pots were incubated at 21° C. (6 a.m. to 10 p.m. light) for 7 days. Demineralized water was added to the soil every 2 to 3 days to a soil weight of 20 g. In the end, each sample of 20 g soil was dissolved in 100 ml 1M KCl and shaken for 1 hour, followed by filtration through Whatmann® paper. The filtrate was used to measure pH, NH4^+ and NO3− concentrations. The nitrification inhibitors were applied in a nitrification inhibition assay using agricultural soil. In practice, ammonium with or without the new nitrification inhibitors was added to soil from a field in Merelbeke (Belgium). The ammonium level was measured at the start of the experiment and at the end of the experiment, after one week of incubation. A nitrification inhibition percentage was calculated by comparing the reduction in ammonium level with the nitrification inhibitor to the reduction in ammonium without the nitrification inhibitor. Ammonium was added to soil with a high nitrification activity and treated with the nitrification inhibitors (final concentration of 50 μM). […] This validates that the new nitrification inhibitors are effectively inhibiting ammonia oxidation by soil communities.

Row | IC50 (Nitrosospira multiformis) [µM] | IC50 (Nitrosomonas europaea) [µM] | Compound | Nitrification from NH2OH (% compared to DMSO) [1] [%] | effect on hydroxylamine (NH2OH) oxidation, in words ([1]; 30 minutes assay, listed as DMP) | Nitrification from NH3 (% compared to DMSO) [1] [%] | activity at 100 µM (Nitrosospira multiformis) [%] | activity at 100 µM (Nitrosomonas europaea) [%] | nitrification inhibition, in words (Nitrosospira multiformis) | nitrification inhibition, in words (Nitrosomonas europaea) | inhibition of ammonium consumption in soil, in words (Merelbeke soil) | inhibition at 50 µM (Merelbeke soil) [%]
1 | 14 | 6 | Cc1c[nH]nc1C [Example C1, 3,4-dimethylpyrazole, reference compound] | 56 | reduced NH2OH oxidation; also recorded: limited effect | 27 | 0 | 0 |  |  |  | 
2 | < 3.5 | 14 | CN(Cc1c(F)cccc1Cl)CN1CCOC1=S [Example 6, 3-[[(2-chloro-6-fluorophenyl)methyl-methylamino]methyl]-1,3-oxazolidine-2-thione] | 80 |  | 18 | 0 | 0 | strong nitrification inhibition | strong nitrification inhibition |  | 
3 | < 6 | > 100 | CCC1CCCCN1C(=O)CSC1=NCCS1 (stereo not drawn) [Example 9] |  |  |  | 0 | 68 |  |  | significant inhibition | 10
4 | < 10 | > 100 | O=C(CSC1=NCCS1)N1CCCC1 [Example 10] |  |  |  | 6 | 81 |  |  | significant inhibition | 7
